Earlier results, collected in patent US6821974B2, “Stable pharmaceutical compositions” (Barbeau Pharma, Inc, priority 2002, dated 2004).
Read-outs that look alike come from different tables or passages of the source.

Key:
[1] = 20 mg/ml sterile injection solutions

- storage time after which submicron particles appear [1]: 6-12 months
SMILES: NNc1nncc2ccccc12 [Hydralazine, 1-hydrazinophthalazine]
- onset of action (given intravenously): 10 to 20 min
- duration of action (in vivo): 3 to 4 h
- maximum hypotensive effect (in vivo): 10 to 80 min
- onset of action (in vivo): 10 to 30 min
